Assay results as given in doi:10.1101/2024.12.09.627564, “Cannabinoid inhibition of mechanosensitive K^+ channels” (bioRxiv, 2024).

Tests used:
TRPA1 = tested on: TRPA1; set-up: method as in PMID 30697147, PMID 31566564; conditions: activation; cited from earlier work
[1] = tested on: voltage-gated sodium channels; conditions: cited from earlier work
GPR55 = tested on: GPR55; set-up: method as in PMID 17876302, PMID 29669714, PMID 36787750; conditions: negative modulation of GPR55; cited from earlier work
Kv7.2/7.3 = tested on: Kv7.2/7.3; set-up: method as in PMID 35179483, PMID 37857637; conditions: activation; cited from earlier work
TRAAKG158D = biological target: T1, TRAAKG158D (Homo sapiens, UniProt Q9NYG8, G132D); assay: Excised patch recording of TRAAK mutant G158D; format: biochemical
T1 construct: The transcribed messages encode H. sapiens TRAAK amino acids 1–393; expressed in transfected cells; host or cells: Xenopus laevis oocytes, cRNA injection
T1 sequence (Q9NYG8 1-393 G132D): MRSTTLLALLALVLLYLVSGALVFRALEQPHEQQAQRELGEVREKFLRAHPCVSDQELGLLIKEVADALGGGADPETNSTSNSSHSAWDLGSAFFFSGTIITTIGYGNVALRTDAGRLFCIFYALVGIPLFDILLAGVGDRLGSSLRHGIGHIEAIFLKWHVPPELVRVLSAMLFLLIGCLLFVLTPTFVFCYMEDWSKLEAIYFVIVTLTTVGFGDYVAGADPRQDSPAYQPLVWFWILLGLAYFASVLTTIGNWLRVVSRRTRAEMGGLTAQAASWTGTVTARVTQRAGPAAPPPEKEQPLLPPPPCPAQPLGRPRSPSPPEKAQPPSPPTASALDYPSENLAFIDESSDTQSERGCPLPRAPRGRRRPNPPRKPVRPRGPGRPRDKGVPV
Excerpt: For patch clamp recording from Xenopus oocytes, genes encoding full-length Homo sapiens TRAAK (UniProt Q9NYG8–2), TREK-1 (UniProt O95069), and TREK-2 (UniProt P57789) were codon optimized for eukaryotic expression, synthesized (Genewiz), and cloned into a modified pGEMHE vector using Xho1 and EcoR1 restriction sites. The transcribed messages encode H. sapiens TRAAK amino acids 1–393, TREK-1 amino acids 1–426, or TREK-2 amino acids 1–538 with an additional three amino acids (SNS) at the C terminus. TRAAK mutants were introduced by polymerase chain reaction (PCR). Linearized DNA was transcribed in vitro using T7 polymerase. Complementary RNA (0.1 to 10 ng for TRAAK, TREK-1, TREK-2, and mutants) in 50 nL H2O was injected into Xenopus laevis oocytes extracted from anesthetized frogs. Currents were recorded at 25 °C from inside-out patches excised from oocytes 1 to 5 d after RNA injection. The pipette solution contained 15 mM KCl, 135 mM NaCl, 2 mM MgCl2, and 10 mM HEPES (pH = 7.4 with KOH) and the bath solution contained 150 mM KCl and 10 mM HEPES (pH = 7.1 with KOH). Borosilicate glass pipettes were pulled to 2–5 MΩ resistance.
Patches were evaluated with voltage-step protocols to confirm TRAAK expression and minimal non-specific leak based on reversal potential. Currents were recorded using an Axopatch 200B amplifier (Molecular Devices) at a bandwidth of 1 kHz and digitized with an Digidata 1550B (Molecular Devices) at 100–500 kHz using pClamp10.7 software. Pressure was applied with a second-generation high-speed pressure clamp device (HSPC-2-SB, ALA Scientific Instruments). Aggregated data were from patches from n ≥ 2 different cells on different days. No relevant differences were observed between patches from different cells. In an effort to minimize variability associated with differences in resting membrane tension, we targeted patches with low basal curvature and low resting channel activity and ensured measured pressure difference across the patch was as close to zero as possible at rest to prevent mechanical activation of channels. Data were analyzed using Clampfit 10.7, Excel, and Graphpad Prism software. For voltage families, the data were decimated 100x and plotted in Prism. […]
To avoid cannabinoid absorption to plastic, cannabinoid solutions were made in glass vials and diluted by weight, perfusion was performed using glass tubing pulled from borosilicate glass Pasteur pipettes (Fisherbrand, Cat# 13–678-20C), and recordings were performed in glass chambers. Channel activity was continuously recorded during perfusion steps. […]
The effects of cannabinoids on channel activity were quantified by the reduction in channel current evoked at 0 mV during a gap-free recording or during 200 ms long voltage families with steps ranging from −100 to +100 mV. […]

[2] = as measured in plasma or estimated in brain tissue; cited from earlier work

C=C(C)[C@@H]1CCC(C)=C[C@H]1c1c(O)cc(CCCCC)cc1O [CBD, Cannabidiol]
EC50 (TRPA1): 0.11 µM | IC50 [1]: 2 to 10 µM | IC50 (GPR55): ~0.5 µM | EC50 (Kv7.2/7.3): 0.2 µM | EC50 (TRAAKG158D): 1.03 ± 0.22 µM | IC50 (TRAAKG158D): 1.03 ± 0.22 µM | fold less sensitive than wild-type TRAAK (TRAAKG158D; G158D vs wild-type): ~ 7.1 fold | inhibition at 10 µM (TRAAKG158D; highest CBD concentration tested, 10 μM, read-out: inhibition plateauing at % of initial current): ~45% | concentration in treated patients [2]: 50 to 100 nM
